Source: US7632679B2, “Systems and methods for screening for modulators of neural differentiation” (The Trustees of Columbia University in the City of New York, priority 2002, dated 2009)
Entries after “also recorded” stand apart in the source; their conditions may differ.

Columns and labels:
[1] = test system: ES cells / embryoid bodies; experiment: Suppression and induction of a neural character in differentiating embryoid bodies; format: cell-based, mouse; conditions: for acquisition of neural precursor cell fate (Sox1): 4 days of differentiation, factor present for entire culture (Wnt3a conditioned medium 1×, BMP4 10 ng/ml, SU5402 5 μM); for neural precursor or post-mitotic neural cells: EBs differentiated 4 days with RA+Wnt3a or RA+BMP4
Procedure: (§1) Medium was replaced every 2 days. Medium was supplemented by factors, at the start of ES-cell aggregation/differentiation (day 0) or on day 2, as indicated below, and cultured for a further 2-8 days.
(§2) Soluble Wnt3a and control-conditioned medium (Wilson et al., The status of Wnt signaling regulates neural and epidermal fates in the chick embryo. Nature, 411:325-30, 2001) were prepared, as previously described (Shibamoto et al., Cytoskeletal reorganization by soluble Wnt-3a protein signalling. Genes Cells, 3:659-70, 1998). Soluble Frizzled 8 (mFrz8CRD-IgG) and control-conditioned medium were prepared by transfecting HEK-293 cells with mfz8CRD-IgG (Hsieh et al., Biochemical characterization of Wnt-frizzled interactions using a soluble, biologically active vertebrate Wnt protein. Proc. Natl. Acad. Sci. USA, 96:3546-51, 1999) or LacZ reporter construct (Wilson et al., An early requirement for FGF signalling in the acquisition of neural cell fate in the chick embryo. Curr. Biol., 10:421-29, 2000). The transfected HEK-293 cells were then incubated for 48 h in OPTI-MEM medium. mFrzCRD-1gG conditioned medium was used undiluted.
Immunohistochemical localization of proteins was performed, as previously described (Yamada et al., Control of cell pattern in the developing nervous system: polarizing activity of the floor plate and notochord. Cell, 64:635-47, 1991). Neural precursor (neural progenitor) cells were delineated by expression of rabbit anti-Sox1. Post-mitotic neurons were delineated using mouse anti-Pax6. Otx1/Otx2 and Eng1, which are co-expressed at the midbrain/hindbrain boundary, were used to define cells of a midbrain-like character (Davis and Joyner, Expression patterns of the homeo box-containing genes En-1 and En-2 and the proto-oncogene int-1 diverge during mouse development. Genes Dev., 2:1736-44, 1988). Hox C6 and HoxC8 were used to delineate cells of a spinal-cord character. Krox20 (Covance) is expressed in hindbrain cells, in regions fated to give rise to rhombomeres 3 and 5; thus, co-expression of Sox1 and Otx1/Otx2, in the absence of Eng1 or Krox 20, was used to delineate an anterior/prosencephalic character (Lemaire and Kessel, Gastrulation and homeobox genes in chick embryos. Mech. Dev., 67:3-16, 1997).
In control experiments, 15-30% of cells attained a neural-cell fate when subjected to aggregation in differentiation medium. To suppress a neural-cell fate, medium was supplemented by Wnt3a conditioned medium (1×), BMP4 (10 ng/ml), or SU5402 (5 μM), at the start of ES-cell aggregation (day 0). To induce a neural-cell fate, medium was supplemented by mFRZ8CRD conditioned medium (2×) at the start of ES-cell aggregation (day 0). ES cells were differentiated for 4-8 days.

[2] = test system: ES-cell-derived embryoid bodies; experiment: HB9+ motor neuron generation in embryoid bodies; format: cell-based, mouse
Procedure: (§3) For some experiments, ES cells were grown on a monolayer of stromal PA6 cell line (Riken Cell Bank, Japan), in DFK5 medium alone, or supplemented with 2 μM RA, as described (Kawasaki et al., Induction of midbrain dopaminergic neurons from ES cells by stromal cell-derived inducing activity. Neuron, 28:31-40, 2000).
To begin to examine the capacity of mouse ES cells to generate motor neurons, the inventors grew mouse ES cells in aggregate culture for 2 days, a procedure that results in the formation of embryoid bodies (EBs) (Bain et al., Embryonic stem cells express neuronal properties in vitro. Dev. Biol., 168:342-57, 1995).

[3] = test system: HBG3 ES cells; experiment: eGFP+ motor neuron generation in HBG3 ES-cell-derived embryoid bodies; format: cell-based, mouse
Procedure: as §3
A transgenic mouse line was established by pronucleus injection of a construct that used a ˜9 kB fragment comprising the 5′ upstream region of the murine HB9 gene (Arber et al., Requirement for the homeobox gene Hb9 in the consolidation of motor neuron identity. Neuron, 23:659-764, 1999), followed by a 5′ splice substrate (Choi et al., A generic intron increases gene expression in transgenic mice. Mol. Cell Biol., 11:3070-74, 1991), an eGFP gene, and a bovine growth hormone polyadenylation signal. The ˜9 kB Not1 fragment of HB9 is sufficient to direct eGFP expression to develop motor neurons in transgenic embryos examined from E9.5 to P10. In one transgenic line (mHB9-Gfp1b), the pattern of eGFP expression corresponded closely to the profile of expression of endogenous HB9. ES-cell lines were derived from mHB9-Gfp1b heterozygous blastocysts, as previously described (Abbondanzo et al., Derivation of embryonic stem cell lines. Methods Enzymol., 225:803-23, 1993). One selected line (HBG3) was tested for its capacity to integrate into developing mouse blastocysts and its capacity for germline transmission.
HBG3 ES-cell embryoid bodies were dissociated using a papain dissociation system (Worthington Biochemical Corp.). Cells expressing high levels of eGFP were sorted from the cell suspension with a Beckman-Coulter Altra flow cytometer, based on their eGFP fluorescence and forward light scatter using the gate indicated in the plot. Typically, 20-30% of input cells expressed high levels of GFP. The analysis established that this eGFP-Hi cell group constituted a >95% pure population of motor neurons. The yield of a typical FACS sort is 3000-5000 GFP-Hi cells per EB.

[4] = test system: neural progenitor cells in embryoid bodies; experiment: Progenitor transcription factor expression (ventralization) in RA-exposed embryoid bodies; format: cell-based, mouse
[5] = test system: ES-cell-derived neural precursor cells; experiment: Caudalization of a neural character by Wnt3a; format: cell-based, mouse; conditions: Wnt3a at different concentrations and/or times; 2 days differentiation medium, then 2 days with Wnt3a
Procedure: as §1, §2
Immunohistochemical localization of proteins was performed, as previously described (Yamada et al., Control of cell pattern in the developing nervous system: polarizing activity of the floor plate and notochord. Cell, 64:635-47, 1991). […]

[6] = test system: mouse ES cells; experiment: Directed differentiation of ES cells into LH2-positive dorsal spinal neurons; format: cell-based; conditions: embryoid bodies grown in the presence of BMP7
Procedure: Embryonic stem (ES) cells were grown on mouse embryonic fibroblasts in ES-cell medium, as described in Example 1. ES-cell colonies were partially dissociated with 0.05% trypsin/EDTA, after 2 days, and cultured in DFNB medium (neurobasal medium (Gibco) mixed with DMEM (Specialty Media, EmbryoMax) and F12 (Gibco), in a 2:1:1 ratio, supplemented with 1×B27 supplement, 0.1 mM 2-mercaptoethanol (Sigma), 2 mM L-glutamine (Gibco), and 1× penicillin/streptomycin (Gibco)) (˜10^5 cells/ml).
After 2 days in culture, embryoid bodies (EBs) were plated in DFNB medium supplemented with retinoic acid (100 nM to 1 μM) (Sigma). After 1-2 days in culture, in the presence of retinoic acid, EBs were collected, rinsed 2-3 times with PBS, and plated in DFNB medium supplemented with human BMP4 (10 ng/ml; R&D systems) or BMP7 (20 ng/ml). After an additional 4 days in culture, cells were fixed using 4% paraformaldehyde, and processed for immunocytochemistry.

[7] = RA-treated EBs, 10 nM Hh-Ag1.3, 3 days

## Cc1c[nH]c(/C=C2\C(=O)Nc3ccccc32)c1CCC(=O)O [SU5402]
[1]
  acquisition of neural precursor cell fate (Sox1): could not acquire a neural precursor cell fate

## CC1=C(/C=C/C(C)=C/C=C/C(C)=C/C(=O)O)C(C)(C)CCC1 [RA, retinoic acid]
[2]; RA-exposed EBs grown alone for 5 days
  HB9+ neurons per section: 7±2 HB9^+ neurons/section

## CNC1CCC(N(Cc2cccc(-c3ccncc3)c2)C(=O)c2sc3ccccc3c2Cl)CC1 (centres unmarked) [Hh-Ag1.3]
[2]; Hh-Ag1.3 (1 μM) for 5 days without RA
  HB9+ neurons in EBs: No HB9^+ neurons were generated; also recorded: did not contain HB9^+ neurons
[2]; RA-treated EBs plus SHh (300 nM) or Hh-Ag1.3 (1 μM)
  HB9+ neurons per section: 509±57 HB9^+ neurons/section
[2]; RA-treated EBs plus SHh (300 nM) or Hh-Ag1.3 (1 μM), ~10-15 sections per EB
  HB9+ neurons per EB: 5000 HB9^+ neurons
[3]; 10 μM Hh-Ag1.3
  toxicity for cells differentiating in EBs: became toxic for cells differentiating in EBs
[3]; Hh-Ag1.3 (1 μM) in the absence of RA
  generation of eGFP+/HB9+ motor neurons: failed to generate eGFP^+/HB9^+ motor neurons
[3]; RA and 1 μM Hh-Ag1.3
  eGFP+/HB9+ motor neurons as share of total cells in EBs: 20-30%
[3]; RA plus 2.2 μM Hh-Ag1.3, 5 days
  cells in EBs expressing eGFP: 22.5%
[3]; RA-exposed HBG3 EBs plus Hh-Ag1.3, concentration-dependent (0 to 2.2 μM)
  number of eGFP+/HB9+ motor neurons: increased
[4]; Hh-Ag1.3-exposed EBs, 3 days with RA
  BrdU incorporation by Olig2+ cells: incorporated BrdU
[4]; [7]
  Nkx6.1+ and Olig2+ cells: a few Nkx6.1^+ and Olig2^+ cells were detected
  Pax7 expression: completely repressed
  number of Dbx1+ cells: reduced
  number of Pax6+ and Irx3+ cells: increased
[4]; RA-treated EBs, 1 μM Hh-Ag1.3
  Dbx1 expression: virtually eliminated
  HNF3β+ floor plate cells: no HNF3β^+ floor plate cells were detected
  Nkx2.2+ cells: a few Nkx2.2^+ cells were also induced
  number of Irx3+ and Pax6+ cells: markedly reduced
  number of Nkx6+ and Olig2+ cells: large increase

## Wnt3a
[1]
  acquisition of neural precursor cell fate (Sox1): could not acquire a neural precursor cell fate
  neural precursor or post-mitotic neural cells: no neural precursor or post-mitotic neural cells were present
[5]
  caudalization of neural cells: progressively caudalized to hindbrain and spinal cord character

B1: BMP7: bone morphogenetic protein 7 (protein, UniProt P18075 293-431, looked up)
Bone morphogenetic protein 7: STGSKQRSQNRSKTPKNQEALRMANVAENSSSDQRQACKKHELYVSFRDLGWQDWIIAPEGYAAYYCEGECAFPLNSYMNATNHAIVQTLVHFINPETVPKPCCAPTQLNAISVLYFDDSSNVILKKYRNMVVRACGCH
[6]
  dorsal spinal neurons (LH2) and their progenitors (Math1): numerous dorsal neurons and their progenitors were observed

B2: BMP4: human BMP4 protein (bone morphogenetic protein), R&D systems (protein, UniProt P12644 293-408, looked up)
Bone morphogenetic protein 4: SPKHHSQRARKKNKNCRRHSLYVDFSDVGWNDWIVAPPGYQAFYCHGDCPFPLADHLNSTNHAIVQTLVNSVNSSIPKACCVPTELSAISMLYLDEYDKVVLKNYQEMVVEGCGCR
[1]
  acquisition of neural precursor cell fate (Sox1): could not acquire a neural precursor cell fate
  neural precursor or post-mitotic neural cells: no neural precursor or post-mitotic neural cells were present
